# In ChEMBL document CHEMBL1201862, “PubChem BioAssay data set” (2004):
# Calls of active or inactive are those of the source.
# Tests used:
# [1] = target: Apoptotic protease-activating factor 1 (Homo sapiens, UniProt O14727); type: functional
# [2] = target: Casein kinase I isoform delta (Homo sapiens, UniProt P48730); type: functional;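 further: measured as one member (CSNK1D) of a kinome panel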
# [3] = target: Homeodomain-interacting protein kinase 2 (Homo sapiens, UniProt Q9H2X6); type: functional;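 further: measured within a kinome-wide kinase profiling panel, HIPK2 being one panel member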
# [4] = target: Ribosomal protein S6 kinase beta-1 (Homo sapiens, UniProt P23443); type: functional;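 further: measured as one member of a kinome-wide profiling panel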
# [5] = target: Tyrosine-protein kinase Fer (Homo sapiens, UniProt P16591); type: functional;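 further: FER tested as one member of a kinome panel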
# [6] = target: Serine/threonine-protein kinase D2 (Homo sapiens, UniProt Q9BZL6); type: functional;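 further: measured against PRKD2 as one member of a kinome-wide kinase profiling panel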
# [7] = target: STE20-like serine/threonine-protein kinase (Homo sapiens, UniProt Q9H2G2); type: functional
# Ephrin type-A receptor 2 = Ephrin type-A receptor 2 (Homo sapiens, UniProt P29317); type: functional;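 further: EPHA2 tested as one member of a kinome-wide kinase panel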
# [8] = target: Non-receptor tyrosine-protein kinase TYK2 (Homo sapiens, UniProt P29597); type: functional
# [9] = target: Casein kinase II subunit alpha (Homo sapiens, UniProt P68400); type: functional
# [10] = target: Tyrosine-protein kinase Srms (Homo sapiens, UniProt Q9H3Y6); type: functional;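 further: SRMS measured as one member of a kinome-wide kinase profiling panel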
# [11] = target: Protein kinase C iota type (Homo sapiens, UniProt P41743); type: functional;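 further: measured within a kinome-wide kinase panel, PRKCI as panel member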
# [12] = target: MAP kinase-interacting serine/threonine-protein kinase 2 (Homo sapiens, UniProt Q9HBH9); type: functional
# [13] = target: Tyrosine-protein kinase SYK (Homo sapiens, UniProt P43405); type: functional
# [14] = target: Tyrosine-protein kinase ITK/TSK (Homo sapiens, UniProt Q08881); type: functional;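 further: affinity for ITK measured as one member of a broad kinase panel profiling binding across the kinome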
# [15] = target: Casein kinase I isoform gamma-1 (Homo sapiens, UniProt Q9HCP0); type: functional;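 further: measured as the CSNK1G1 member of a kinome profiling panel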
# Misshapen-like kinase 1 = Misshapen-like kinase 1 (Homo sapiens, UniProt Q8N4C8); type: functional;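 further: kinome panel screen with MINK as the panel member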
# [16] = target: Interleukin-1 receptor-associated kinase 4 (Homo sapiens, UniProt Q9NWZ3); type: functional
# [17] = target: Ribosomal protein S6 kinase alpha-5 (Homo sapiens, UniProt O75582); type: functional
# [18] = target: Serine/threonine-protein kinase pim-3 (Homo sapiens, UniProt Q86V86); type: functional;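 further: value obtained as one member of a broad kinase panel profiling effort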
# [19] = target: Vascular endothelial growth factor receptor 3 (Homo sapiens, UniProt P35916); type: functional;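 further: value from a kinome-wide profiling panel, with FLT4 as the panel member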
# [20] = target: Mitogen-activated protein kinase kinase kinase 20 (Homo sapiens, UniProt Q9NYL2); type: functional
# [21] = target: Tyrosine-protein kinase Lyn (Homo sapiens, UniProt P07948); type: functional;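 further: lyn as one member of a kinase panel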
# [22] = target: Tyrosine-protein kinase FRK (Homo sapiens, UniProt P42685); type: functional;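 further: FRK tested as one member of a kinome panel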
# [23] = target: Testis-specific serine/threonine-protein kinase 2 (Homo sapiens, UniProt Q96PF2); type: functional;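 further: part of the Navigating the Kinome panel, target entry STK22B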
# [24] = target: Serine/threonine-protein kinase Chk2 (Homo sapiens, UniProt O96017); type: functional;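 further: CHEK2 entry within a kinome-wide screening panel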
# [25] = target: Mitogen-activated protein kinase kinase kinase kinase 5 (Homo sapiens, UniProt Q9Y4K4); type: functional;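 further: measured as one member of a kinome-spanning kinase panel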
# [26] = target: Maternal embryonic leucine zipper kinase (Homo sapiens, UniProt Q14680); type: functional
# [27] = target: RAC-alpha serine/threonine-protein kinase (Homo sapiens, UniProt P31749); type: functional;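 further: AKT1 affinity measured as one member of a kinome-wide kinase profiling panel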
# Streptococcus = test: Group A Streptococcus viability loss, dose response, counter-screen for streptokinase expression inhibitor project, luminescence, BacTiterGlo (AID 1915); type: functional, organism-based;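 further: potency for reduction of bacterial viability or growth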
# Aminopeptidase N = target: T1, Aminopeptidase N (Plasmodium falciparum FcB1/Columbia, UniProt O96935); test: P. falciparum M1AAP inhibitors, biochemical, fluorogenic H-Leu-NHMec substrate, 1536-well (AID 1445); design: species or system Plasmodium falciparum 3D7, 3D7
# T1 sequence (O96935 whole entry): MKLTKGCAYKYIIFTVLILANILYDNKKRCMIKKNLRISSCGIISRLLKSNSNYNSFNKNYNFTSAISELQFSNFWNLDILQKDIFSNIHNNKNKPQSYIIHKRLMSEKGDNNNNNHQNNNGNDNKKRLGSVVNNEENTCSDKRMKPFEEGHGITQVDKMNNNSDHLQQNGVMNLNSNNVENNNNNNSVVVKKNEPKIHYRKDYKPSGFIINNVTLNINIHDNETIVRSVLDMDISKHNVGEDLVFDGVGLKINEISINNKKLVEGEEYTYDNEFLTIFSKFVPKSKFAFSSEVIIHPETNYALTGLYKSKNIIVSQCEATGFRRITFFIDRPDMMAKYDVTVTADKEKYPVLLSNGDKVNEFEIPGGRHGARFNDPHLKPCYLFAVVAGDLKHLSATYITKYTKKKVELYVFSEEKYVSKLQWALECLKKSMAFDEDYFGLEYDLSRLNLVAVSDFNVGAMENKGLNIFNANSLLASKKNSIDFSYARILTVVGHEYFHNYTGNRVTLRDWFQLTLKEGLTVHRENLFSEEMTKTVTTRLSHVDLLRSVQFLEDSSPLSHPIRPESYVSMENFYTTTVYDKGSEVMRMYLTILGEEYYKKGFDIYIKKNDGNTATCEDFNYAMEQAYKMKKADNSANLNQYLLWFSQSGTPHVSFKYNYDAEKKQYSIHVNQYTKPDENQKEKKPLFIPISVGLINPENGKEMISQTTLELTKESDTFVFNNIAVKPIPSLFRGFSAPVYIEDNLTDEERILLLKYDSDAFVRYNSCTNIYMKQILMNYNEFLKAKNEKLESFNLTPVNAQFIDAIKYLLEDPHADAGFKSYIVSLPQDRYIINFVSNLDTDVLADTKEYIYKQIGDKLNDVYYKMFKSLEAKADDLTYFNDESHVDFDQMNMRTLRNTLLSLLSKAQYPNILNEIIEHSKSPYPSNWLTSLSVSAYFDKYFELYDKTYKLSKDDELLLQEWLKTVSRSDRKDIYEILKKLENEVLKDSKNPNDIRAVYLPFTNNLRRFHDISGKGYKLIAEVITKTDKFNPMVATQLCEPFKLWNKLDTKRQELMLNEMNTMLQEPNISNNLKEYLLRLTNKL
# Chain of Casein kinase II subunit alpha (P68400 whole entry): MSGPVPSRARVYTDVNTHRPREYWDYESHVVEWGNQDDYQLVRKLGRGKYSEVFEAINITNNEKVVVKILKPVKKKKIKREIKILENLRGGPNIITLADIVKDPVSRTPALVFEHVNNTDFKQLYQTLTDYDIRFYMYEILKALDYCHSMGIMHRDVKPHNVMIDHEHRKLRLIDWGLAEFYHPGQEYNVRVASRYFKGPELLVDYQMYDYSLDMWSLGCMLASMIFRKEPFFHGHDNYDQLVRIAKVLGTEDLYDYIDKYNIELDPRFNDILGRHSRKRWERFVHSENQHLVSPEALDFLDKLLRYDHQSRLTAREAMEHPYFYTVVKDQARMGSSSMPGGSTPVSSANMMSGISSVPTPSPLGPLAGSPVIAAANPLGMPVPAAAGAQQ
# Chain of Protein kinase C iota type (P41743 whole entry): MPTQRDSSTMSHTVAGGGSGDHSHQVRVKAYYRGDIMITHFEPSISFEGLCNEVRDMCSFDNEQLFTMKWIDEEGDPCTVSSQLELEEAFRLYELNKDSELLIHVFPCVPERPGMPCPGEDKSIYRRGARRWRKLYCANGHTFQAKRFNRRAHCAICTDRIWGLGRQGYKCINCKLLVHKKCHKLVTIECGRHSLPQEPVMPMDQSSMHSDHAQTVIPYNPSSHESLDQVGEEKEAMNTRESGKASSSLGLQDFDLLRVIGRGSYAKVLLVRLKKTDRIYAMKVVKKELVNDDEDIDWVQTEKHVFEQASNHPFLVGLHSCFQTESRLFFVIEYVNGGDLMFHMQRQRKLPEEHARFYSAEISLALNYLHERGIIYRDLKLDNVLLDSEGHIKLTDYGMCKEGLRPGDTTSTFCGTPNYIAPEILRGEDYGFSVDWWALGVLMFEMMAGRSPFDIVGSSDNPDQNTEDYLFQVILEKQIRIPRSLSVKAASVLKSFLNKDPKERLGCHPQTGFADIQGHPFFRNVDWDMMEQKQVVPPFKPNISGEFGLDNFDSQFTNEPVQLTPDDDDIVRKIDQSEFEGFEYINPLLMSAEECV
# Chain of Testis-specific serine/threonine-protein kinase 2 (Q96PF2 whole entry): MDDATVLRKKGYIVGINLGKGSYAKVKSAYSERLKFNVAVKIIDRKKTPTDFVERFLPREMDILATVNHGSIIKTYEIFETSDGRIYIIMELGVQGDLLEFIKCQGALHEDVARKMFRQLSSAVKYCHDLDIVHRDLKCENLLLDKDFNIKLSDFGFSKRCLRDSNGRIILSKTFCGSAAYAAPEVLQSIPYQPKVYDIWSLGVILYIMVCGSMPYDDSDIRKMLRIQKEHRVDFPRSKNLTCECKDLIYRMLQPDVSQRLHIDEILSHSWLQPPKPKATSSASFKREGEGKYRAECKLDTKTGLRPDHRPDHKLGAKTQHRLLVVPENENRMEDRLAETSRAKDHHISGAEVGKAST
# Chain of Tyrosine-protein kinase FRK (P42685 whole entry): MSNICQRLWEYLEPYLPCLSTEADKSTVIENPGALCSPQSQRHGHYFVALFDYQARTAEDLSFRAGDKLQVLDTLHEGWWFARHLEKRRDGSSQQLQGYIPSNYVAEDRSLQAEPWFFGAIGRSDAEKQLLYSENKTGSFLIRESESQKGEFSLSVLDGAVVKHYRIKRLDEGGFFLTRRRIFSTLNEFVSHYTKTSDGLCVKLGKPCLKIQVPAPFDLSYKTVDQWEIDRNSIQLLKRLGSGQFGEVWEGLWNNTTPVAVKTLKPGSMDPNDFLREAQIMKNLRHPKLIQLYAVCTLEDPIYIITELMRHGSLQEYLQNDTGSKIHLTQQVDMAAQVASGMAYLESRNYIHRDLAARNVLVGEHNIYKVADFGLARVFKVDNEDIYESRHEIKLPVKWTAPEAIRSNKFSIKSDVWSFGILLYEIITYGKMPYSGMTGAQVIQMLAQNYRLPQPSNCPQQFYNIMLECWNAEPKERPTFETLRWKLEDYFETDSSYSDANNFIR
# Chain of Ribosomal protein S6 kinase alpha-5 (O75582 whole entry): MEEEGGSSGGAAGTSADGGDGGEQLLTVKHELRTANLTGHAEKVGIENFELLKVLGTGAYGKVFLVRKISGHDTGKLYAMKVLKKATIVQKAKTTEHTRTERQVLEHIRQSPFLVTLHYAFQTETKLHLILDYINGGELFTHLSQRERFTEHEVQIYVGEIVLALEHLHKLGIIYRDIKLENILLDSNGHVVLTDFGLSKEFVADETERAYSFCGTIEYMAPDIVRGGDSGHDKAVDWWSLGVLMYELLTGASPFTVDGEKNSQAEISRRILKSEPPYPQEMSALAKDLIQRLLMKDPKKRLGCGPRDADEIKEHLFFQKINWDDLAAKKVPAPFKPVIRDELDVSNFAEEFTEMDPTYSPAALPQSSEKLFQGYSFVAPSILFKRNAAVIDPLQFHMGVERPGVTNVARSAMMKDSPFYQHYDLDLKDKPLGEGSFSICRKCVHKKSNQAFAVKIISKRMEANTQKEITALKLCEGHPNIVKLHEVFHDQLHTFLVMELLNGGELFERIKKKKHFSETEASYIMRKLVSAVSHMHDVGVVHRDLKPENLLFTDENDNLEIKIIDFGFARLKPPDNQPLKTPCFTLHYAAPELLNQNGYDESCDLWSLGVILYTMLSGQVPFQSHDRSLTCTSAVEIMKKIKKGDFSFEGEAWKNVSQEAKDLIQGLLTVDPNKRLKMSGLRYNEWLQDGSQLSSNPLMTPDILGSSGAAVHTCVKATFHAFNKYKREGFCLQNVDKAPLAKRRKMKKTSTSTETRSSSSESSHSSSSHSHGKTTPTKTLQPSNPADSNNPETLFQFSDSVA
# Chain of STE20-like serine/threonine-protein kinase (Q9H2G2 whole entry): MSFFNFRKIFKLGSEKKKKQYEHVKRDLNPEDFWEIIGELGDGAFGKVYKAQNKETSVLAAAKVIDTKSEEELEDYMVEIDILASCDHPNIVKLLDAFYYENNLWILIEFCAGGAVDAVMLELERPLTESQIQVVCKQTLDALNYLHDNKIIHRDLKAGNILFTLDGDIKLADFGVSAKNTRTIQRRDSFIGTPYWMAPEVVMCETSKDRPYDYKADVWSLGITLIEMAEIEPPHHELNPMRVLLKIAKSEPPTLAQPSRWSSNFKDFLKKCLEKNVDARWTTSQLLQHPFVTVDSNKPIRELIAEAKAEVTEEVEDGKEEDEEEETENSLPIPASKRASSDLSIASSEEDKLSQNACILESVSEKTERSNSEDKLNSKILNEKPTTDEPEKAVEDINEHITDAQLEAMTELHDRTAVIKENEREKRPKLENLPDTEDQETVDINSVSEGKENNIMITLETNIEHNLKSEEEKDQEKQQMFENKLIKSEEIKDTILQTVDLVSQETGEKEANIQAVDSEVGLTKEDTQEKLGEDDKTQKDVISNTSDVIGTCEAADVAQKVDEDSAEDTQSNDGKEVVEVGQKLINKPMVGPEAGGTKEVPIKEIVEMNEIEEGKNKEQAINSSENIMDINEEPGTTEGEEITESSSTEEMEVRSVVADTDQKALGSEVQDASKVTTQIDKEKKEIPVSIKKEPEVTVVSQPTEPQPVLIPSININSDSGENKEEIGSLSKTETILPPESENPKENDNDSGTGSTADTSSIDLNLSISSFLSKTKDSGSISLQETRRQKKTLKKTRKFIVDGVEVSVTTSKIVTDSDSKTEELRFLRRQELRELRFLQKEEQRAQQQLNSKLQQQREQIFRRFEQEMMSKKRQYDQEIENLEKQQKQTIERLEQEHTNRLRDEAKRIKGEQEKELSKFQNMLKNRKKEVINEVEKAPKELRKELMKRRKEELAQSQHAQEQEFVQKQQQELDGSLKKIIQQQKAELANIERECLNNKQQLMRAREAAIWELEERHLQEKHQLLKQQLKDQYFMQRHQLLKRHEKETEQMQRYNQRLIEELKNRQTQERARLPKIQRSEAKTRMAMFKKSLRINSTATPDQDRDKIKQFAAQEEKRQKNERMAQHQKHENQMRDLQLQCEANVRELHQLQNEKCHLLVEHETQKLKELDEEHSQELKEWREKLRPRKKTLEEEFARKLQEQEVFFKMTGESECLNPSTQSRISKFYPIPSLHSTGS
# Chain of Ribosomal protein S6 kinase beta-1 (P23443 whole entry): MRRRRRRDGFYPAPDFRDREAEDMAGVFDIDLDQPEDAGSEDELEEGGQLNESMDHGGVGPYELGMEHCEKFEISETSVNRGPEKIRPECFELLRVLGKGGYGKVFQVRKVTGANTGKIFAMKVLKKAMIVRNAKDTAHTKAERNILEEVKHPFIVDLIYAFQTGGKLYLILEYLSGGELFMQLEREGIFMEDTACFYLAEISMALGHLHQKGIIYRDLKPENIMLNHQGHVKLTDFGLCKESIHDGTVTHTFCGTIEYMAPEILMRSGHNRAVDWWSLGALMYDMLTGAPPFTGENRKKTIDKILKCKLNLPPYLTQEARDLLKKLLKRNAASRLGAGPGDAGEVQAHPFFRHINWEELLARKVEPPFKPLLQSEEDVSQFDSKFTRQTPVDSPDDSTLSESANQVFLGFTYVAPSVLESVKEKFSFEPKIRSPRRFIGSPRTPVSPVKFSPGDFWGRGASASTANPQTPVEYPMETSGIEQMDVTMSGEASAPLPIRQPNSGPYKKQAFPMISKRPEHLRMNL
smiles,measurement,setting,value
Cc1ccc(NC2=C(NCCO)C(=O)c3ccccc3C2=O)cc1,IC50,[1],15.7 µM (active)
CN1CCC(c2c(O)cc(O)c3c(=O)cc(-c4ccccc4Cl)oc23)C(O)C1 (stereo unspecified),Ki,[2],> 7.94 µM (inactive)
same,Ki,[3],> 3.98 µM (inactive)
same,Ki,[4],> 6.31 µM (inactive)
same,Ki,[5],> 1.58 µM (inactive)
same,Ki,[6],1.26 µM (active)
same,Ki,[7],> 10 µM (inactive)
same,Ki,Ephrin type-A receptor 2,2 µM (active)
same,Ki,[8],> 2 µM (inactive)
same,Ki,[9],> 6.31 µM (inactive)
same,Ki,[10],> 1.58 µM (inactive)
same,Ki,[11],> 5.01 µM (inactive)
same,Ki,[12],5.01 µM (active)
same,Ki,[13],0.794 µM (active)
same,Ki,[14],> 1.58 µM (inactive)
same,Ki,[15],> 6.31 µM (inactive)
same,Ki,Misshapen-like kinase 1,> 7.94 µM (inactive)
same,Ki,[16],5.01 µM (active)
same,Ki,[17],> 2 µM (inactive)
same,Ki,[18],1.26 µM (active)
same,Ki,[19],> 6.31 µM (inactive)
same,Ki,[20],> 7.94 µM (inactive)
same,Ki,[21],> 1.58 µM (inactive)
same,Ki,[22],> 2.51 µM (inactive)
same,Ki,[23],> 1.58 µM (inactive)
same,Ki,[24],> 1.58 µM (inactive)
same,Ki,[25],1 µM (active)
same,Ki,[26],> 2 µM (inactive)
same,Ki,[27],> 7.94 µM (inactive)
CC(/C=C1\SC(=S)N(NS(=O)(=O)c2ccc(C)cc2)C1=O)=C\c1ccccc1,EC50,Streptococcus,8.34 µM (active)
same,IC50,Aminopeptidase N,64 µM (active)
